In experiment [1] the test system is carrageenan-induced edema. The note with it: rat models; cited from earlier work.
Experiment [2] deals with chondrocytes of the rabbit knee joint. Put plainly: Synthesis of type II collagen by primary culture of chondrocytes (density of 116 kD band on electrophoresis). It is filed as cell-based. The settings on record: for Activity of recovering the synthesis of type II collagen inhibited by arachidonic acid: fatty acid added at 300 μM. The procedure:
Using the primary culture of chondrocytes of the rabbit knee joint, the effects of mead acid on the synthesis of type II collagen was compared with that of other fatty acids, in particular arachidonic acid. The mead acid used was 99% 5,8,11-cis-eicosatrienoic acid ethyl ester highly purified in the same manner as in Example 1, and for arachidonic acid, oleic acid and linoleic acid, the commercially available 99% ethyl esters thereof were used. Chondrocytes were prepared from the knee joints of 4-week old Japan white rabbits in accordance with the method of Suzuki and Shimomura [Shimomurra, Y., Yoneda, T., Suzuki, F. Osteogenesis by chondrocyte from growth cartilage of rat rib., Calcif. Tissue Int., 19:179-187, 1975]. The chondrocytes were plated at 10,000 cells/well of the 96-well plate (Iwaki Glass K.K.) in (MEM medium (50 μg/ml vitamin C, 1 ng/ml b-FGF were added) supplemented with 10% bovine calf serum, and pre-incubated for two days (5% CO2, 37° C.). The fatty acids were suspended in 0.0625% HCO-60 prior to use. As the pre-treatment with the fatty acids, the plates were divided into three groups and added thereto the solvent (0.0625% HCO-60) (group A), mead acid (the final concentration, 300 μM) (group B), and arachidonic acid (the final concentration, 300 μM) (group C), and then incubated for about 5 days while the culture medium and the fatty acids were replaced with fresh ones every two days.
Subsequently, the culture medium was replaced with αMEM medium (1 μg/ml transferrin, 1 μM dexamethasone, 2 μg/ml insulin, 50 μg/ml vitamin C) and each fatty acid (mead acid, arachidonic acid, oleic acid, and linoleic acid) was added thereto to a final concentration of 300 μM followed by incubation for seven days to synthesize extracellular matrix. The culture medium and each of the fatty acids were replaced every 2 days with freshly prepared ones. Pepsin (2 mg/ml) acetate solution was added to the plate at 200 μl/well and treated at 37° C. for 24 hours. The residue was recovered from each well and was centrifuged at 15,000 rpm for 10 minutes to form a precipitate, which was then washed once with tris-EDTA buffer (pH 8.0) and dissolved in 100 μl of the SDS sample buffer.
The amount of type II collagen synthesized was determined by electrophoresing 1/10 volume of each sample solution on the multigel 4/20 (Daiichi Kagaku K.K.) and measuring the density of the 116 kD band after staining with Cooumassie Brilliant Blue.

In experiment [3] the test system is rabbit model of osteoarthritis. Description: Range of motion (ROM) of the right knee joint in rabbit models of osteoarthritis prepared using arthrodesis by cast. It is filed as in vivo. The note with it: 0.6 ml of 1 mg/ml solution/joint, right articular cavity twice per week for five weeks; solvent group 70%. The procedure: Models of osteoarthritis were prepared using arthrodesis by cast. The animals used were 12-week old male rabbits (Kbl: NZW, Kitayama Labesu K. K.). Under anesthesia by intramuscular administration of 2 mg/kg of xylazine hydrochloride (Selactal, Bayer A. G.) and 50 mg/kg of ketamine hydrochloride (Ketalar 50 for animals, Sankyo K.K.) (hereinafter referred to as “under anesthesia”), hair was cut off the right hind leg. Then after the region from the upper thigh to the toe was covered with the stockinette and cast pad (3M Medicine K.K.), the knee joint was fixed for three weeks at a stretched and bent position by casting tape (3M Medicine K.K.). […]
In accordance with Example 2, models of osteoarthritis of the knee were prepared using arthrodesis by cast and were divided into three groups of five animals per group so that the average weight and the range of motion of joints of each group became uniform. […] In accordance with Example 2, dosage samples were administered in the right articular cavity twice per week for five weeks and ROM of the joint of the right knee was measured.

Setting [4] is: group C pretreated with arachidonic acid 300 μM (FIG. 3, sample No. 11-15).

As for `CCCCCCCCC=CCC=CCC=CCCCC(=O)O` [5,8,11-eicosatrienoic acid], the “Anti-inflammatory effect on carrageenan-induced edema” value in experiment [1] is recorded as “anti-inflammatory effect”. With `CCCCC/C=C\C/C=C\C/C=C\C/C=C\CCCC(=O)O` [arachidonic acid], the “Effect of addition of fatty acid on synthesis of type II collagen” value in experiment [2] (300 μM, seven days, group A pretreated with solvent (FIG. 3, sample No. 1-5)) is “inhibited synthesis of type II collagen”. Further, in experiment [2] (300 μM, group C pretreated with arachidonic acid 300 μM (FIG. 3, sample No. 11-15)), the “Inhibition of type II collagen synthesis in group C pretreated with arachidonic acid” value was “more conspicuous”. Consider `CCCCC/C=C\C/C=C\CCCCCCCC(=O)O` [linoleic acid], for which the “Activity of recovering the synthesis of type II collagen inhibited by arachidonic acid” value in experiment [2] (setting [4]) is reported as “not observed”. The same measure, in the same setting: for `CCCCCCCC/C=C\CCCCCCCC(=O)O` [oleic acid] the value was “not observed”. As for `CCCCCCCCC=CC/C=C\CCCCC(=O)OCC` [solution A, 6,9-cis-octadecadienoic acid ethyl ester], in experiment [3], the “ROM at week five after the start of administration” value is reported as 80.2%.

With `CCCCCCCCC=CC/C=C\CCCCCCC(=O)OCC` [solution B, 8,11-cis-eicosadienoic acid ethyl ester], the “ROM at week five after the start of administration” value in experiment [3] is reported as 83.6%.

Values taken from US6765020B2, “Drugs for prevention and treatment of diseases caused by abnormalities in cartilage tissues” (Suntory Limited, priority 1995, dated 2004).
